This is an account of results in patent US20200031778A1, “NOVEL 5-SUBSTITUTED IMIDAZOLYLMETHYL DERIVATIVES” (Bayer CropScience Aktiengesellschaft, priority 2016, published 2020).

Data set [1] is described as follows: Log P by HPLC on reversed phase columns (EEC directive 79/831 Annex V.A8; methods [a], [b], [c]). Format: physicochemical. The conditions noted are these: reversed phase HPLC column; method [a]: LC-UV, acidic range, 0.1% formic acid in water and acetonitrile as eluent (linear gradient from 10% to 95% acetonitrile). Summed up: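 Log P derived from retention times, interpolated linearly between bracketing straight-chain alkan-2-ones (3–16 carbons) of known Log P. Eluents ran acetonitrile 10% to 95% against water with 0.1% formic acid ([a], acidic), 0.001 M ammonium acetate ([b], neutral) or 0.1% phosphoric acid ([c], acidic); UV read-out.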

The subject of another data set is Septoria tritici. Briefly: Example IX-B: in vivo preventive test on Septoria tritici (leaf spot on wheat). To be noted: Zymoseptoria tritici, 576 h; compounds of formula IX; 500 ppm of active ingredient; wheat plants, preventive spray; evaluated 24 days after inoculation; read-out: efficacy. The protocol: Example IX-B: In Vivo Preventive Test on Septoria Tritici (Leaf Spot on Wheat)
(§1) The active ingredients are made soluble and homogenized in a mixture of Dimethyl sulfoxide/Acetone/Tween® 80 and then diluted in water to the desired concentration.
(§2) The young plants of wheat are treated by spraying the active ingredient prepared as described above. Control plants are treated only with an aqueous solution of Acetone/Dimethyl sulfoxide/Tween® 80.
After 24 hours, the plants are contaminated by spraying the leaves with an aqueous suspension of Septoria tritici spores. The contaminated wheat plants are incubated for 72 hours at 18° C. and at 100% relative humidity and then for 21 days at 20° C. and at 90% relative humidity.
The test is evaluated 24 days after the inoculation. 0% means an efficacy which corresponds to that of the control plants while an efficacy of 100% means that no disease is observed.

The next data set deals with Sphaerotheca fuliginea. The data set is described as follows: Example IX-C: in vivo preventive test on Sphaerotheca fuliginea (powdery mildew on cucurbits). To be noted: Podosphaera fuliginea, 360 h; compounds of formula IX; 500 ppm of active ingredient; gherkin plants, preventive spray; evaluated 15 days after inoculation; read-out: efficacy. The protocol:
Example IX-C: In Vivo Preventive Test on Sphaerotheca Fuliginea (Powdery Mildew on Cucurbits)
as §1
The young plants of gherkin are treated by spraying the active ingredient prepared as described above. Control plants are treated only with an aqueous solution of Acetone/Dimethyl sulfoxide/Tween® 80.
After 24 hours, the plants are contaminated by spraying the leaves with an aqueous suspension of Sphaerotheca fuliginea spores. The contaminated gherkin plants are incubated for 72 hours at 18° C. and at 100% relative humidity and then for 12 days at 20° C. and at 70-80% relative humidity.
The test is evaluated 15 days after the inoculation. 0% means an efficacy which corresponds to that of the control plants while an efficacy of 100% means that no disease is observed.

In a further data set the test system is Puccinia recondita. Briefly: Example IX-A: in vivo preventive test on Puccinia recondita (brown rust on wheat). To be noted: 264 h, compounds of formula IX, 500 ppm of active ingredient, wheat plants, preventive spray, evaluated 11 days after inoculation, read-out: efficacy. The protocol:
Example IX-A: In Vivo Preventive Test on Puccinia Recondita (Brown Rust on Wheat)
as §1, §2
After 24 hours, the plants are contaminated by spraying the leaves with an aqueous suspension of Puccinia recondita spores. The contaminated wheat plants are incubated for 24 hours at 20° C. and at 100% relative humidity and then for 10 days at 20° C. and at 70-80% relative humidity.
The test is evaluated 11 days after the inoculation. 0% means an efficacy which corresponds to that of the control plants while an efficacy of 100% means that no disease is observed.

For orientation: chromatographic logP means lipophilicity estimated from chromatographic retention. Low readings indicate a more hydrophilic compound, high ones a more lipophilic compound. In the case of `CC(=O)c1cncn1CC(=O)c1cnc(Oc2ccc(C(F)F)cc2)cc1C(F)(F)F` [IX-103], the chromatographic logP in data set [1] came out at 2.71. In addition, the pest or weed control at 500 ppm in the data set with Septoria tritici and in the data set on Sphaerotheca fuliginea was 90 to 100% each time.

As for `O=C(Cn1cncc1Cl)c1ccc(Oc2ccc(Cl)cc2)nc1C(F)(F)F` [IX-52], the chromatographic logP in data set [1] worked out at 3. Besides, the pest or weed control at 500 ppm fell in the range of 90 to 100% with Puccinia recondita, 90 to 100% in the data set on Septoria tritici and 70 to 79% with Sphaerotheca fuliginea.

In the case of `CC(=O)c1cncn1CC(=O)c1ccc(Oc2ccc(Br)cc2)nc1C(F)(F)F` [IX-122], the chromatographic logP in data set [1] is 3.31. Also, the pest or weed control at 500 ppm in the data set with Septoria tritici and with Sphaerotheca fuliginea was 90 to 100% each time.

`N#Cc1cncn1CC(=O)c1cnc(Oc2ccc(Cl)cc2F)cc1C(F)(F)F` [IX-96] showed a chromatographic logP in data set [1] of 3.46. The pest or weed control at 500 ppm with Puccinia recondita lay within 80 to 89%; with Septoria tritici it was 90 to 100%; in the data set on Sphaerotheca fuliginea, 90 to 100%.

On to `O=C(Cn1cncc1Cl)c1ccc(Cl)cc1Cl` [IX-19], for which the chromatographic logP in data set [1] was 1.94. Besides, the pest or weed control at 500 ppm in the data set with Septoria tritici and in the data set on Sphaerotheca fuliginea was 90 to 100% each time.

As for `O=C(Cn1cncc1Cl)c1ccc(Oc2ccc(Cl)nc2)cc1Cl` [IX-44], the chromatographic logP in data set [1] amounted to 2.2. In addition, the pest or weed control at 500 ppm was 80 to 89% in the data set with Puccinia recondita, 90 to 100% with Septoria tritici and 90 to 100% with Sphaerotheca fuliginea.

In data set [1], `N#Cc1cncn1CC(=O)c1ccc(Oc2ccc(Cl)cn2)cc1C(F)(F)F` [IX-71] showed a chromatographic logP of 3.01. For the same compound, the pest or weed control at 500 ppm in the data set with Puccinia recondita, with Septoria tritici and in the data set on Sphaerotheca fuliginea was 90 to 100% throughout.

`O=C(Cn1cncc1Br)c1ccc(Cl)cc1Cl` [IX-20] yielded a chromatographic logP in data set [1] of 1.94. In addition, the pest or weed control at 500 ppm with Septoria tritici and in the data set with Sphaerotheca fuliginea was 90 to 100% throughout.

In data set [1], `O=C(Cn1cncc1Cl)c1ccc(Oc2ccc(Cl)cc2)cc1` [IX-21] displayed a chromatographic logP of 2.63. Besides, the pest or weed control at 500 ppm with Puccinia recondita lay within 80 to 89%; with Septoria tritici, 90 to 100%; in the data set on Sphaerotheca fuliginea it was 90 to 100%.

`O=C(Cn1cncc1Br)c1ccc(Oc2ccc(S(F)(F)(F)(F)F)cc2)nc1Cl` [IX-26] gave a chromatographic logP in data set [1] of 3.23. Also, the pest or weed control at 500 ppm in the data set on Puccinia recondita lay in the range of 80 to 89%; in the data set on Septoria tritici, 80 to 89%; with Sphaerotheca fuliginea, 90 to 100%.

Turning to `O=C(Cn1cncc1Br)c1ccc(Oc2ccc(Cl)nc2)nc1Cl` [IX-27], in data set [1], the chromatographic logP came to 2.13. The pest or weed control at 500 ppm with Septoria tritici and with Sphaerotheca fuliginea was 90 to 100% in each case.

For `N#Cc1cncn1CC(=O)c1ccc(Oc2ccc(Cl)nc2)nc1C(F)(F)F` [IX-140], the chromatographic logP in data set [1] came out at 2.55. Also, the pest or weed control at 500 ppm with Septoria tritici and with Sphaerotheca fuliginea was 90 to 100% throughout.

With `O=C(Cn1cncc1Cl)c1ccc(Oc2ccc(Cl)cn2)cc1C(F)(F)F` [IX-72], the chromatographic logP in data set [1] is 2.75. The pest or weed control at 500 ppm in the data set with Puccinia recondita was in the range of 80 to 89%; in the data set on Septoria tritici it was 90 to 100%; in the data set on Sphaerotheca fuliginea it was 70 to 79%.

`O=C(Cn1cncc1Br)c1ccc(Oc2ccc(C(F)(F)F)cc2)cc1C(F)(F)F` [IX-51] had a chromatographic logP in data set [1] of 3.51. For the same compound, the pest or weed control at 500 ppm in the data set with Puccinia recondita was in the range of 80 to 89%; with Septoria tritici it was 90 to 100%; in the data set with Sphaerotheca fuliginea it was 90 to 100%.

On to `N#Cc1cncn1CC(=O)c1ccc(Oc2ccc(C(F)(F)F)nc2)nc1C(F)(F)F` [IX-131], for which the chromatographic logP in data set [1] is 2.92. Moreover, the results for the pest or weed control at 500 ppm in the data set with Puccinia recondita, in the data set with Septoria tritici and in the data set with Sphaerotheca fuliginea were 80 to 89%, 90 to 100% and 90 to 100%, respectively.

On to `N#Cc1cncn1CC(=O)c1ccccc1Cl` [IX-126], for which the chromatographic logP in data set [1] stood at 1.81. In addition, the results for the pest or weed control at 500 ppm in the data set on Septoria tritici and in the data set with Sphaerotheca fuliginea were 80 to 89% and 70 to 79%, respectively.

Regarding `N#Cc1cncn1CC(=O)c1ccc(OC(F)(F)F)cc1` [IX-116], the chromatographic logP in data set [1] came out at 2.12. For the same compound, the pest or weed control at 500 ppm with Septoria tritici and in the data set with Sphaerotheca fuliginea was 80 to 89% in each case.

`N#Cc1cncn1CC(=O)c1ccc(Oc2ccc(Cl)cn2)cc1Cl` [IX-70] showed a chromatographic logP in data set [1] of 2.8. Moreover, the pest or weed control at 500 ppm with Puccinia recondita lay in the range of 80 to 89%; in the data set with Septoria tritici, 70 to 79%; with Sphaerotheca fuliginea it was 90 to 100%.

`O=C(Cn1cncc1Br)c1ccc(Oc2ccc(Cl)cn2)cc1Cl` [IX-55]: the chromatographic logP in data set [1] worked out at 2.52. The pest or weed control at 500 ppm in the data set on Puccinia recondita is 80 to 89%; in the data set on Septoria tritici, 90 to 100%; in the data set on Sphaerotheca fuliginea, 90 to 100%.

As to `O=C(Cn1cncc1F)c1ccc(Oc2ccc(Br)nc2)nc1C(F)(F)F` [IX-142], the chromatographic logP in data set [1] is 2.14. The pest or weed control at 500 ppm in the data set on Septoria tritici and in the data set on Sphaerotheca fuliginea was 90 to 100% in each case.

Compound `O=C(Cn1cncc1Cl)c1ccc(Oc2ccc(C(F)(F)F)cc2)cc1` [IX-17] registered a chromatographic logP in data set [1] of 2.84. In addition, the results for the pest or weed control at 500 ppm in the data set on Puccinia recondita, in the data set on Septoria tritici and with Sphaerotheca fuliginea were 80 to 89%, 90 to 100% and 90 to 100%, respectively.

In the case of `N#Cc1ccc(Oc2ccc(C(=O)Cn3cncc3Cl)c(Cl)c2)cc1` [IX-12], the chromatographic logP in data set [1] stood at 2.32. For the same compound, the pest or weed control at 500 ppm with Septoria tritici and in the data set with Sphaerotheca fuliginea was 90 to 100% each time.

Turning to `O=C(Cn1cncc1Cl)c1ccc(Oc2ccc(Cl)nc2)cc1C(F)(F)F` [IX-28], the chromatographic logP in data set [1] is 2.45. For the same compound, the pest or weed control at 500 ppm in the data set on Puccinia recondita fell in the range of 80 to 89%; in the data set with Septoria tritici, 90 to 100%; in the data set on Sphaerotheca fuliginea it was 90 to 100%.

In the case of `N#Cc1cncn1CC(=O)c1ccc(Cl)cc1` [IX-90], the chromatographic logP in data set [1] was 2.04. Moreover, the pest or weed control at 500 ppm lay within 80 to 89% with Puccinia recondita, 90 to 100% with Septoria tritici and 80 to 89% with Sphaerotheca fuliginea.

Compound `O=C(Cn1cncc1Br)c1ccc(Oc2ccc(Cl)nc2)cc1Cl` [IX-56] had a chromatographic logP in data set [1] of 2.25. Further, the figures for the pest or weed control at 500 ppm with Puccinia recondita and in the data set with Septoria tritici were 80 to 89% and 90 to 100%, respectively.

Regarding `N#Cc1cncn1CC(=O)c1ccc(F)cc1` [IX-100, 3-[2-(4-fluorophenyl)-2-oxo-ethyl]imidazole-4-carbonitrile], the chromatographic logP in data set [1] came to 1.58. Moreover, the pest or weed control at 500 ppm in the data set with Septoria tritici and with Sphaerotheca fuliginea was 90 to 100% in each case.

The compound `N#Cc1cncn1CC(=O)c1ccc(Oc2ccc(C(F)F)cc2)nc1C(F)(F)F` [IX-132] showed a chromatographic logP in data set [1] of 2.8. Besides, the pest or weed control at 500 ppm in the data set with Puccinia recondita, in the data set on Septoria tritici and in the data set with Sphaerotheca fuliginea was 90 to 100% each time.

Compound `O=C(Cn1cncc1Br)c1ccc(Oc2ccc(Cl)cc2)cc1` [IX-22] showed a chromatographic logP in data set [1] of 2.63. For the same compound, the pest or weed control at 500 ppm with Puccinia recondita was in the range of 80 to 89%; in the data set on Septoria tritici, 90 to 100%; in the data set on Sphaerotheca fuliginea, 90 to 100%.

In the case of `O=C(Cn1cncc1Br)c1ccc(Oc2ccc(Cl)cc2)cc1C(F)(F)F` [IX-41], the chromatographic logP in data set [1] came to 3.35. For the same compound, the pest or weed control at 500 ppm in the data set on Puccinia recondita was 80 to 89%; in the data set with Septoria tritici, 90 to 100%.

Regarding `N#Cc1cncn1CC(=O)c1ccc(Oc2ccc(Cl)cc2F)nc1C(F)(F)F` [IX-128], in data set [1], the chromatographic logP is 3.14. The pest or weed control at 500 ppm in the data set with Puccinia recondita is 70 to 79%; in the data set on Septoria tritici, 90 to 100%; in the data set on Sphaerotheca fuliginea, 90 to 100%.

In the case of `N#Cc1cncn1CC(=O)c1cnc(Oc2ccc(Cl)nc2)cc1C(F)(F)F` [IX-141], the chromatographic logP in data set [1] was 2.62. Also, the pest or weed control at 500 ppm in the data set on Septoria tritici and in the data set with Sphaerotheca fuliginea was 90 to 100% throughout.

In data set [1], `O=C(Cn1cncc1C(F)(F)F)c1ccc(Oc2ccc(I)cc2)cc1F` [IX-49] displayed a chromatographic logP of 4.16. Besides, the pest or weed control at 500 ppm was in the range of 80 to 89% in the data set with Puccinia recondita and 90 to 100% in the data set with Septoria tritici.
